Test results as given in patent US20240287048A1, “SUBSTITUTED ACYL SULFONAMIDES FOR TREATING CANCER” (The Broad Institute, Inc., priority 2020, published 2024).

Tests used:
[1] = system: Salmonella tester strain TA1535; test: Bacterial reverse gene mutation test Ames MPF Penta I, TA1535; format: cell-based
Description: (§1) The employed commercial assay Ames MPF Penta I comprises the histidine auxotrophic Salmonella tester strains TA98, TA100, TA1535, TA1537 and two tryptophan auxotrophic tester strains E. coli wp2 (E. coli wp2 [pKM101] and E. coli wp2 uvrA, combined exposure). These strains meet the requirements of the OECD guideline 471 for testing chemicals.
(§2) Bacterial strains were exposed to various concentrations of the test compounds in a histidine (His) or tryptophane (Trp) deficient medium. As recommended by ICH S2(R1) guideline, the test was conducted in two assay conditions, with and without addition of microsomal enzymes (S9 mix), taking the potential formation of DNA reactive metabolites via xenobiotic biotransformation into account.
(§3) The potential of the test compound to induce gene mutations is assessed by comparing the control with the test compounds treated bacterial cultures.

KAT6A = target: T1, KAT6A (Homo sapiens, UniProt Q92794); test: Kat6a activity assay (TR-FRET, acetylation of biotinylated histone H4 peptide); format: biochemical; details: recombinant human His-tagged Kat6a (amino acids 194-810), 60 mins at 22° C., read-out: KAT6A-DPF/HAT domain IC50 [mol/l] (arithmetic mean)
T1 construct: Recombinant human His-tagged Kat6a protein (amino acids 194-810); His; made in house; host or cells: Baculovirus-infected Sf9 insect cells
Summary of the method: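 His-tagged human Kat6a (aa 194-810, Sf9-expressed) with compound (0.01-20 μM) for 60 min at 22° C., pH 8 Tris buffer, 220 nM biotinylated H4 peptide (aa 1-24) and 600 nM acetyl-CoA. Acetyl-K8 detected by Eu-antibody/SA-XL665 TR-FRET (665/620 nm ratio); IC50 from 4-parameter fit.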

LCLC-97TM1 cells = test: Proliferation assay in LCLC-97TM1 cells; format: cell-based; details: Homo sapiens, 144 h, Alamar Blue, read-out: LCLC97TM1 proliferation assay, EC50[M] (arithmetic mean)
Summary of the method: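 LCLC-97TM1 large-cell lung carcinoma cells were seeded at 6000 per well in RPMI 1640 with 2.5% FBS and exposed to compound for 144 h at 37 °C, 5% CO2, in triplicate. Viability was read by Alamar Blue fluorescence at 590 nm after 2 h.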

[2] = system: Salmonella tester strain TA1537; test: Bacterial reverse gene mutation test Ames MPF Penta I, TA1537; format: cell-based
Description: as §1, §2, §3

[3] = system: Salmonella tester strain TA100; test: Bacterial reverse gene mutation test Ames MPF Penta I, TA100; format: cell-based
Description: as §1, §2, §3

[4] = system: Salmonella tester strain TA98; test: Bacterial reverse gene mutation test Ames MPF Penta I, TA98; format: cell-based
Description: as §1, §2, §3

T1 sequence (Q92794 194-810): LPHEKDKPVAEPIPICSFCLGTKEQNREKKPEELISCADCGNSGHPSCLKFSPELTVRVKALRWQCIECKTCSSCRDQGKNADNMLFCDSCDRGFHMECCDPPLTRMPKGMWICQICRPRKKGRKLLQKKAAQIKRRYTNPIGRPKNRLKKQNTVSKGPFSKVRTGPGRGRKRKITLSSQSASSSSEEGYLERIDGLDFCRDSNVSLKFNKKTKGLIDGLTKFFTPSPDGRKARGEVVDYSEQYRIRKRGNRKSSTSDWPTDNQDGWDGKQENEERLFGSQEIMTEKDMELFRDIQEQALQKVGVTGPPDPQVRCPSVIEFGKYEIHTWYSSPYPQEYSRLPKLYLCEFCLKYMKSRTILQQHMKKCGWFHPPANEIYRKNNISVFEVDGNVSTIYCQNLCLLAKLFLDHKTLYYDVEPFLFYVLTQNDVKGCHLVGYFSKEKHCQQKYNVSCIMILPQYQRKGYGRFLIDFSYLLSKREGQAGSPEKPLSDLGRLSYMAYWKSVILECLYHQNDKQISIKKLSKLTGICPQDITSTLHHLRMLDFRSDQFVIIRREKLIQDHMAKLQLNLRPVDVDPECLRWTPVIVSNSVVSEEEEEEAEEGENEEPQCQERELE

Which “Result of the bacterial reverse gene mutation test Ames MPF Penta I, TA1535” value (“Result … TA1535” below) ([1]; with addition of S9 mix) does the source give for `O=C(NS(=O)(=O)c1ccccc1-c1ccccc1)c1cc2ccc(C3CC3)cc2o1` [Example 16, N-([1,1′-biphenyl]-2-sulfonyl)-6-cyclopropyl-1-benzofuran-2-carboxamide] here?
The value was “negative”.

And the “Result … TA1535” value ([1]; without addition of S9 mix)?
Its value is “negative”.

What about the IC50 (KAT6A) of the same molecule?
The IC50 was 62.4 nM.

And the EC50 (LCLC-97TM1 cells)?
Its EC50 is 1.14e-05 M.

And the “Result of the bacterial reverse gene mutation test Ames MPF Penta I, TA1537” value (from here on “Result … TA1537”) ([2]; with addition of S9 mix)?
The value was “negative”.

And the “Result … TA1537” value ([2]; without addition of S9 mix)?
Its value is “negative”.

What about the “Result of the bacterial reverse gene mutation test Ames MPF Penta I, TA100” value (shortened to “Result … TA100”) ([3]; with addition of S9 mix) of the same molecule?
Its value is “negative”.

And the “Result … TA100” value ([3]; without addition of S9 mix)?
Its value is “negative”.

And the “Result of the bacterial reverse gene mutation test Ames MPF Penta I, TA98” value (shortened to “Result … TA98”) ([4]; with addition of S9 mix)?
The value was “negative”.

What about the “Result … TA98” value ([4]; without addition of S9 mix) of the same molecule?
The value was “negative”.

`CCOc1ccccc1S(=O)(=O)NC(=O)c1cc2ccc(C(C)C)cc2o1` [Example 55, N-(2-Ethoxybenzenesulfonyl)-6-(propan-2-yl)-1-benzofuran-2-carboxamide] was tested. Which “Result … TA1535” value ([1]; with addition of S9 mix) did it give?
Its value is “negative”.

What about the “Result … TA1535” value ([1]; without addition of S9 mix) of the same molecule?
The value was “negative”.

What about the IC50 (KAT6A) of the same molecule?
The IC50 was 596 nM.

And the EC50 (LCLC-97TM1 cells)?
The EC50 was > 2e-05 M.

What about the “Result … TA1537” value ([2]; with addition of S9 mix) of the same molecule?
The value was “negative”.

What about the “Result … TA1537” value ([2]; without addition of S9 mix) of the same molecule?
The value was “negative”.

And the “Result … TA100” value ([3]; with addition of S9 mix)?
The value was “negative”.

What about the “Result … TA100” value ([3]; without addition of S9 mix) of the same molecule?
The value was “negative”.

And the “Result … TA98” value ([4]; with addition of S9 mix)?
The value was “negative”.

What about the “Result … TA98” value ([4]; without addition of S9 mix) of the same molecule?
The value was “negative”.
